{"source": "patent US4508926A", "about": "“4-Hydroxy-benzhydrols, process for their preparation and pharmaceutical compositions containing them” (Richter Gedeon Vegyeszeti Gyar Rt., priority 1982, dated 1985)", "key": {"[1]": {"system": "ethanolic locomotoric hyperactivity", "details": "mice; in a dose range which decreases spontaneous locomotoric activity; cited from earlier work"}, "[2]": {"system": "spontaneous locomotoric activity", "details": "in the dose range that normalizes ethanolic hyperactivity; cited from earlier work"}, "ethanolic narcosis": {"system": "ethanolic narcosis", "experiment": "Ethanolic narcosis period in rats (righting reflex)", "format": "in vivo, Hann.-Wistar rats", "details": "1 h before ethanol i.p., n=10, control 100 ± 5.2", "protocol": "The animals were treated with various doses of the compounds of the formula (I) in groups of ten, orally, One hour after treatment the rats were treated with […]. of ethanol intraperitoneally (i.p.). The narcosis period of the animals was measured from the elapse of the righting reflex until a spontaneous correction of the body position. The average of the narcosis period and the percentage difference from the control were calculated. The control group was treated with placebo and […]. of ethanol."}, "[3]": {"experiment": "Acute oral toxicity, 14 days observation", "details": "rat, in vivo, 500 mg/kg"}, "[4]": {"system": "alcoholic intoxication, narcosis", "details": "in vivo; cited from earlier work"}}}
{"compound": "CC(N)(Cc1ccc(O)cc1)C(=O)O", "note": "(stereo not drawn) [α-Methyl-para-tyrosine]", "values": [{"measurement": "Ethanolic locomotoric hyperactivity", "setting": "[1]", "value": "normalizes the ethanolic locomotoric hyperactivity"}, {"measurement": "Spontaneous locomotoric activity", "setting": "[2]", "value": "decreases the spontaneous locomotoric activity"}]}
{"compound": "CCC(O)(c1ccc(O)cc1)c1cccc(Cl)c1", "note": "(stereo not drawn) [B, 3-chloro-4'-hydroxy-α-ethyl-benzhydrol]", "values": [{"measurement": "Ethanolic narcosis period, x ± S.E.", "setting": "ethanolic narcosis; 40.0 mg./kg. orally", "value": "60 ± 7.5"}, {"measurement": "mortality at 336 h", "setting": "[3]", "value": 0, "unit": "%"}]}
{"compound": "CCC(O)(c1ccc(O)cc1)c1ccccc1C(F)(F)F", "note": "(stereo not drawn) [A, 2-trifluoromethyl-4'-hydroxy-α-ethyl-benzhydrol]", "values": [{"measurement": "Ethanolic narcosis period, x ± S.E.", "setting": "ethanolic narcosis; 5.0 mg./kg. orally", "value": "69 ± 4.5"}, {"measurement": "Ethanolic narcosis period, x ± S.E.", "setting": "ethanolic narcosis; 20.0 mg./kg. orally", "value": "52 ± 6.0"}, {"measurement": "Ethanolic narcosis period, x ± S.E.", "setting": "ethanolic narcosis; 40.0 mg./kg. orally", "value": "39 ± 3.4"}, {"measurement": "mortality at 336 h", "setting": "[3]", "value": 0, "unit": "%"}]}
{"compound": "N[C@@H](CS)C(=O)O", "note": "[L-cysteine, reference compound]", "values": [{"measurement": "Ethanolic narcosis period, x ± S.E.", "setting": "ethanolic narcosis; 500.0 mg./kg.", "value": "63 ± 4.2"}, {"measurement": "Ethanolic narcosis period, x ± S.E.", "setting": "ethanolic narcosis; 1000.0 mg./kg.", "value": "66 ± 5.9"}, {"measurement": "Alcoholic intoxication, narcosis", "setting": "[4]", "value": "shortened"}]}
